Test results from US7495011B2 (priority 2003, dated 2009).

Columns and labels:
SARS virus [1] = conditions: background art; cited from earlier work
in vitro = conditions: African green monkey
SARS virus [2] = test: microbe, parasite or virus in culture; assay type: cell-based, SARS-associated coronavirus; conditions: Severe acute respiratory syndrome coronavirus, Vero, read-out: EC50 (concentration required to inhibit cytopathic effects by viral infection to 50% of the control value)
SARS virus [3] = assay type: cell-based, SARS-associated coronavirus; conditions: 10 μM, Vero cells, FIG. 1D
SARS virus [4] = assay type: cell-based, SARS-associated coronavirus; conditions: 10 μM, FIG. 1B
SARS virus [5] = assay type: cell-based, SARS-associated coronavirus; conditions: 10 μM, FIG. 1E

SMILES: CC1(C)[C@@H](O[C@H]2O[C@H](C(=O)O)[C@@H](O)[C@H](O)[C@H]2O[C@@H]2O[C@H](C(=O)O)[C@@H](O)[C@H](O)[C@H]2O)CC[C@]2(C)[C@H]3C(=O)C=C4[C@@H]5C[C@@](C)(C(=O)O)CC[C@]5(C)CC[C@@]4(C)[C@]3(C)CC[C@@H]12 [Glycyrrhizin, glycyrrhizin]
- Efficacy against the SARS virus as reported in the literature (SARS virus [1]): extremely limited potency
- CC50 (in vitro): > 24300 µM
- EC50 (SARS virus [2]): 364 µM

SMILES: Cc1c(O)cccc1C(=O)N[C@@H](CSc1ccccc1)[C@H](O)CN1C[C@H]2CCCC[C@H]2C[C@H]1C(=O)NC(C)(C)C [Nelfinavir, nelfinavir]
- SARS virus infection by immunofluorescence antibody staining (SARS virus [3]): advantageously controlled
- CC50 (in vitro): 14.6 µM
- Morphology of SARS virus-infected Vero cells (SARS virus [4]): had the same morphology as normal cells
- EC50 (SARS virus [2]): 0.0484 µM
- RNA levels of the SARS virus in Vero cells (RT-PCR) (SARS virus [5]): highly inhibitive against the propagation of the SARS virus
